Measurements from ChEMBL document CHEMBL1134005, “2-Arylindole-3-acetamides: FPP-competitive inhibitors of farnesyl protein transferase” (Bioorg Med Chem Lett, 2001).

What was measured:
[1] = molecular target: T1, Protein farnesyltransferase (Homo sapiens, UniProt P49354+P49356); experiment: Concentration required for the inhibitory activity against human Farnesyltransferase; assay type: protein-complex assay
[2] = molecular target: T1, Protein farnesyltransferase; experiment: (§1) Inhibition of FPP incorporation into biotinylated K-Ras-derived peptide by human farnesyl transferase; assay type: functional
[3] = molecular target: T1, Protein farnesyltransferase; experiment: as §1; assay type: functional; remark: listed apart in the source
[4] = molecular target: T1, Protein farnesyltransferase; experiment: (§2) Inhibition of FPP incorporation into biotinylated K-Ras-derived peptide by human farnesyl transferase with 5 nM ATP; assay type: functional
[5] = molecular target: T1, Protein farnesyltransferase; experiment: as §2; assay type: functional; remark: listed apart in the source
[6] = molecular target: Geranylgeranyl transferase type I (Homo sapiens, UniProt P49354+P53609); experiment: Inhibitory activity against human Geranylgeranyl transferase type I; assay type: protein-complex assay
[7] = molecular target: T1, Protein farnesyltransferase; experiment: as §2; assay type: functional; remark: listed apart in the source
[8] = molecular target: T1, Protein farnesyltransferase; experiment: as §1; assay type: functional; remark: listed apart in the source
[9] = molecular target: T1, Protein farnesyltransferase; experiment: as §1; assay type: functional; remark: listed apart in the source
[10] = molecular target: T1, Protein farnesyltransferase; experiment: as §1; assay type: functional; remark: listed apart in the source
[11] = molecular target: T1, Protein farnesyltransferase; experiment: Inhibition of FPP incorporation into biotinylated K-Ras-derived peptide by human farnesyl transferase 5 nM ATP; assay type: functional
[12] = molecular target: T1, Protein farnesyltransferase; experiment: as §2; assay type: functional; remark: listed apart in the source
[13] = molecular target: T1, Protein farnesyltransferase; experiment: Inhibition of HDJ-2 farnesylation in PSN-1 cells; assay type: functional, cell-based
[14] = molecular target: T1, Protein farnesyltransferase; experiment: Inhibition of K-Ras farnesylation in PSN-1 cells without GGT1; assay type: functional, cell-based
[15] = molecular target: T1, Protein farnesyltransferase; experiment: Inhibition of HDJ-2 farnesylation in PSN-1 cells with 100 nM GGT1; assay type: functional, cell-based
[16] = molecular target: T1, Protein farnesyltransferase; experiment: Inhibition of HDJ-2 farnesylation in PSN-1 cells at without GGT1; assay type: functional, cell-based
[17] = molecular target: T1, Protein farnesyltransferase; experiment: Inhibition of K-Ras farnesylation in PSN-1 cells with 100 nM GGT1; assay type: functional, cell-based

SMILES | IC50 [1] | further results
O=C(Cc1c(-c2ccccc2)[nH]c2ccccc12)N(Cc1cccnc1)C1CCCC1 | 11400 nM | –
CC(C)N(Cc1cnccn1)C(=O)Cc1c(-c2ccccc2)[nH]c2ccccc12 | 400 nM | –
CCCCn1c(-c2ccccc2)c(CC(=O)N(Cc2ccncc2)C(C)C)c2ccccc21 | > 50000 nM | –
CC(C)N(Cc1ccnn1C)C(=O)Cc1c(-c2ccccc2)[nH]c2ccccc12 | 245 nM | –
CC(C)CN(Cc1ccccn1)C(=O)Cc1c(-c2ccccc2)[nH]c2ccccc12 | 1500 nM | –
COc1ccccc1-c1[nH]c2ccccc2c1CC(=O)N(Cc1ccncc1)C(C)C | 1370 nM | –
CCn1c(-c2ccccc2)c(CC(=O)N(Cc2ccncc2)C(C)C)c2ccccc21 | 3800 nM | –
CC(C)N(Cc1cnn(C)c1)C(=O)Cc1c(-c2ccccc2)[nH]c2ccccc12 | 527 nM | –
CC(C)CN(Cc1cccnc1)C(=O)Cc1c(-c2ccccc2)[nH]c2ccccc12 | 2480 nM | –
CC(C)N(Cc1ccn(C)n1)C(=O)Cc1c(-c2ccccc2)[nH]c2ccccc12 | 568 nM | –
CC(C)N(Cc1cncnc1)C(=O)Cc1c(-c2ccccc2)[nH]c2ccccc12 | 232 nM | –
N#Cc1ccc(Cn2cncc2CN2CCN(C(=O)NC34CC5CC(CC(C5)C3)C4)CC2)cc1 | 517 nM | IC50 [6]: 0.2 nM
CC(C)N(Cc1ccncc1)C(=O)Cc1cn(Cc2ccc(Br)cc2)c2ccccc12 | 1740 nM | –
O=C(Cc1c(-c2ccccc2)[nH]c2ccccc12)N(Cc1cccnc1)Cc1cccnc1 | 2730 nM | –
CC(C#N)N(Cc1cccnc1)C(=O)Cc1c(-c2ccccc2)[nH]c2ccccc12 (stereo not given) | 380 nM | –
CC(C)N(Cc1ccncc1)C(=O)Cc1c[nH]c2ccccc12 | > 50000 nM | –
CCCn1c(-c2ccccc2)c(CC(=O)N(Cc2ccncc2)C(C)C)c2ccccc21 | 29900 nM | –
CC(C)N(Cc1ccco1)C(=O)Cc1c(-c2ccccc2)[nH]c2ccccc12 | 241 nM | –
O=C(Cc1c(-c2ccccc2)[nH]c2ccccc12)N(Cc1ccncc1)C1CCCC1 | 4000 nM | –
CC(C)N(Cc1ccncc1)C(=O)Cc1c(-c2ccc(Br)cc2)[nH]c2ccccc12 | 14400 nM | –
N#CCCN(C(=O)Cc1c(-c2ccccc2Cl)[nH]c2ccccc12)C1CC1 | 1630 nM | –
CC(C)N(Cc1ccccn1)C(=O)Cc1c(-c2ccccc2)[nH]c2ccccc12 | 684 nM | –
CC(C)N(Cc1ccncc1)C(=O)Cc1cn(Cc2ccccc2Br)c2ccccc12 | 572 nM | –
Cc1ccccc1-c1[nH]c2ccccc2c1CC(=O)N(CCC#N)C1CC1 | 712 nM | –
CC(C)N(Cc1ccncc1)C(=O)Cc1cn(Cc2cccc(Br)c2)c2ccccc12 | 2150 nM | –
CC[C@@H](C)N(Cc1ccncc1)C(=O)Cc1c(-c2ccccc2)[nH]c2ccccc12 | 4590 nM | –

These reach a lower IC50 [1]. Values come first.

IC50 [1] | SMILES | further results
182 nM | Cn1c(-c2ccccc2)c(CC(=O)N(CCC#N)C2CC2)c2ccccc21 | –
160 nM | O=C(Cc1c(-c2ccccc2)[nH]c2ccccc12)N(Cc1ccncc1)C1CCC1 | –
41 nM | CC(C)N(Cc1ccncc1)C(=O)Cc1c(-c2ccccc2)[nH]c2ccccc12 | –
31 nM | Cc1ccccc1-c1[nH]c2ccccc2c1CC(=O)N(Cc1ccncc1)C(C)C | –
46 nM | CC(C)N(Cc1ccncc1)C(=O)Cc1c(-c2ccccc2Cl)[nH]c2ccccc12 | –
106 nM | CCN(Cc1ccncc1)C(=O)Cc1c(-c2ccccc2)[nH]c2ccccc12 | IC50 [2]: 250 nM; IC50 [3]: 230 nM; IC50 [4]: 43 nM; IC50 [5]: 47 nM; IC50 [6]: > 20000 nM; IC50 [7]: 190 nM; IC50 [8]: 4000 nM; IC50 [9]: 54 nM; IC50 [10]: 230 nM; IC50 [11]: 20 nM; IC50 [12]: 65 nM
12 nM | Cc1ccccc1-c1c(CC(=O)N(Cc2ccncc2)C(C)C)c2ccccc2n1C | EC50 [13]: 1060 nM
171 nM | O=C(Cc1c(-c2ccccc2)[nH]c2ccccc12)N(Cc1ccncc1)C1CC1 | –
15 nM | CC(C)N(Cc1ccncc1)C(=O)Cc1c(-c2ccccc2)n(C)c2ccccc12 | EC50 [14]: > 30000 nM; EC50 [15]: 1000 nM; EC50 [13]: 1330 nM; EC50 [16]: 1980 nM; EC50 [17]: 1800 nM
172 nM | CC(C)N(Cc1ccncc1)C(=O)Cc1c(-c2cccc(Cl)c2)[nH]c2ccccc12 | –
123 nM | N#CCCN(C(=O)Cc1c(-c2ccccc2)[nH]c2ccccc12)C1CC1 | –
44 nM | O=C(Cc1c(-c2ccccc2)[nH]c2ccccc12)N(Cc1cccnc1)C1CCC1 | –
110 nM | CC(C)N(Cc1ccoc1)C(=O)Cc1c(-c2ccccc2)[nH]c2ccccc12 | –
58 nM | CC(C)N(Cc1cccnc1)C(=O)Cc1c(-c2ccccc2)[nH]c2ccccc12 | –
45 nM | O=C(Cc1c(-c2ccccc2)[nH]c2ccccc12)N(Cc1cccnc1)C1CC1 | –
77 nM | CC[C@H](C)N(Cc1ccncc1)C(=O)Cc1c(-c2ccccc2)[nH]c2ccccc12 | –
